Measurements published in patent publication US20240166612A1, “ARYLTHIOETHER ACETAMIDE AND RELATED COMPOUNDS AND THEIR USE IN TREATING MEDICAL CONDITIONS” (X-Biotix Therapeutics, Inc., priority 2021, published 2024).
Converted amounts (≈) assume the structure as drawn.

How the values were obtained:
[1] = system: Wild-type P. aeruginosa PAO1; assay: Broth microdilution MIC, wild-type P. aeruginosa PAO1; type: cell-based; settings: Pseudomonas aeruginosa; wild-type P. aeruginosa PAO1, 37° C., 18 h; read-out: PAO1 WT MIC
Protocol: (§1) Exemplary compounds from the above Examples were tested to determine their minimum inhibitory concentration (MIC) for exemplary strains of Escherichia and Pseudomonas bacteria using broth microdilution methods. Assay procedures and results are described below.
(§2) Broth microdilution assays were conducted according to Clinical and Laboratory Standards Institute guidelines (CLSI, M07-A^11: Clinical and Laboratory Standards Institute. Methods for Dilution Antimicrobial Susceptibility Tests for Bacteria that Grow Aerobically; Approved Standard-11th Edition. Wayne, PA: CLSI, 2018). Briefly, bacterial suspensions were adjusted to a density equivalent to a 0.5 McFarland standard and diluted in sterile, cation-adjusted Mueller-Hinton broth (Beckton Dickinson) to yield a final inoculum between 2×10^5 and 8×10^5 colony-forming units (CFU)/mL. An inoculum volume of 98 μL was added to wells containing 2 μL of 2-fold serial dilutions of drug (prepared in DMSO). All inoculated microdilution trays were incubated in ambient air at 37° C. for 18 h. […] Performance of the assay was monitored by the use of laboratory quality-control strains (S. aureus ATCC 29213 and P. aeruginosa ATCC 27853) and levofloxacin, a compound with a defined MIC spectrum, in accordance with CLSI guidelines (CLSI, M100Ed29: Clinical and Laboratory Standards Institute. Performance Standards for Antimicrobial Susceptibility Testing, 29th Edition. Wayne, PA: CLSI, 2018).
(§3) Multiple enterobacteriaceae strains were tested, including both wild-type strains and multi-drug resistance pump deficient mutants. Specific strains tested included the following: • Wild-type P. aeruginosa PAO1, • P. aeruginosa PAO1 ΔmexABoprM—Disabled multi-drug efflux system Δ(MexAB-OprM), • P. aeruginosa PAO397—PAO1Δ(mexAB-oprM) Δ(mexCD-oprJ) Δ(mexEF-oprN) Δ(mexJK) Δ(mexXY) ΔopmH, • P. aeruginosa LESB58—Clinical isolate; colistin-resistant, isolated in the United Kingdom in 1988 from a patient with cystic fibrosis • E. coli JW0452-3 (BW25113 JacrA::kan)—Disabled multi-drug efflux system (AcrAB-TolC).
(§4) Experimental results are provided in Table 11, which provides MIC values for wild-type P. aeruginosa PAO1 (“PAO1 WT MIC”), P. aeruginosa PAO ΔmexABoprM (“PAO1 KO MIC”), P. aeruginosa PAO397 (“PAO397 KO MIC”), P. aeruginosa LESB58 (“LESB58”), and E. coli JW0452-3 (BW25113 JacrA::kan) (“E. coli KO MIC”).

[2] = target: T1, recombinant LpxA enzyme (P. aeruginosa) (Pseudomonas aeruginosa, UniProt Q9X6P4); assay: LpxA in vitro substrate acylation assay with RapidFire MS analysis (P. aeruginosa); type: biochemical; settings: P. aeruginosa enzyme 0.5 nM, PaACP-C10, 30 min
T1 sequence (Q9X6P4 1-258): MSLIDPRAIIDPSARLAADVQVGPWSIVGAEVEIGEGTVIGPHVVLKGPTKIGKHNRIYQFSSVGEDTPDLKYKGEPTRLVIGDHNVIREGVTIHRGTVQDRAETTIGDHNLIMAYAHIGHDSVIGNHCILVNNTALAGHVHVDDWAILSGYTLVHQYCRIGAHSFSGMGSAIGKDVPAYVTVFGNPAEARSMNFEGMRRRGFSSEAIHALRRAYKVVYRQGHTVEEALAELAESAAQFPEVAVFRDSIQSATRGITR
Protocol: Exemplary compounds from the above Examples were tested for ability to inhibit LpxA activity using an in vitro substrate acylation assay with RapidFire™ MS analysis. Assay procedures and results are described below.
Reactions were carried out in a final volume of 30 μL with 25 mM HEPES (pH 7.3), 150 mM NaCl, 2 mM DTT, 0.01% BSA, 5 μM UDP-GlcNac, recombinant LpxA enzyme (0.5 nM P. aeruginosa or 1.0 nM E. coli, both produced at Evotec), 0.5 μM acyl-transfer reagent (decanoyl P. aeruginosa acyl-carrier protein [PaACP-C10] or myristoyl E. coli acyl-carrier protein [EcACP-C1-4], both produced at Evotec), and 1% DMSO containing test compound. After 30 min incubation at room temperature, reactions were stopped by addition of 30 μL of 10% TCA in water.
Samples were centrifuged (4350 rpm, 4° C., 5 min), and then subjected to RapidFire™ MS analysis on an Agilent RapidFire 300 coupled to an Agilent 6460 triple-quadrupole mass spectrometer. Analytes were retained on a C4 (type A) cartridge using the following solvents and flow rates: • Pump 1—H2O with 5 mM NH4OAc at 2.0 mL/min, • Pump 2—MeOH/H2O (90/10) at 1.5 mL/min, • Pump 3—MeOH/H2O (90/10) at 0.5 mL/min, and • Pump 4—ACN (organic)/H2O (aqueous). Substrate and product of the reaction were detected in negative mode ESI-MS/MS by MRM (multiple reaction monitoring) of transitions 606.0/385.0 (UDP-GlcNAc substrate) and 776.2/385.0 (UDP-3-O—(R-3-hydroxydecanoyl)-GlcNAc product, for P. aeruginosa LpxA assay) or 832.2/385.0 (UDP-3-O—(R-3-hydroxymyristoyl)-GlcNAc product, for E. coli LpxA assay).
For IC50 determinations, peak areas of the substrate and product were compared to compute the proportion of product formed by the LpxA enzyme at each compound concentration.

[3] = system: P. aeruginosa PAO397; assay: Broth microdilution MIC, P. aeruginosa PAO397; type: cell-based; settings: Pseudomonas aeruginosa, PAO397, 18 h, read-out: PAO397 KO MIC
Protocol: as §1, §2, §3, §4

[4] = system: P. aeruginosa PAO1 ΔmexABoprM; assay: Broth microdilution MIC, P. aeruginosa PAO1 ΔmexABoprM; type: cell-based; settings: Pseudomonas aeruginosa, PAO1, 18 h, read-out: PAO1 KO MIC
Protocol: as §1, §2, §3, §4

[5] = system: P. aeruginosa LESB58; assay: Broth microdilution MIC, P. aeruginosa LESB58; type: cell-based; settings: Pseudomonas aeruginosa; P. aeruginosa LESB58 clinical isolate, colistin-resistant, 37° C., 18 h
Protocol: as §1, §2, §3, §4

Compound | MIC [1] [µg/mL] | IC50 [2] [nM] | MIC [3] [µg/mL] | MIC [4] [µg/mL] | MIC [5] [µg/mL]
N#Cc1ccc(CN(Cc2nnc(N)o2)C(=O)CSc2cccc(F)c2Cl)c(F)c1 [Compound No. 28, N-[(5-Amino-1,3,4-oxadiazol-2-yl)methyl]-2-(2-chloro-3-fluoro-phenyl)sulfanyl-N-[(4-cyano-2-fluoro-phenyl)methyl]acetamide] | 16 to 64 (≈ 35.6 to 142 µM) | < 20 | < 1 | 1 to 16 (≈ 2.22 to 35.6 µM) | –
N#Cc1ccc(CN(Cc2nnc(N)o2)C(=O)COc2cc(F)cc(F)c2Cl)c(F)c1 [Compound No. 31, N-[(5-Amino-1,3,4-oxadiazol-2-yl)methyl]-2-(2-chloro-3,5-difluoro-phenoxy)-N-[(4-cyano-2-fluoro-phenyl)methyl]acetamide] | > 64 | – | < 1 | 1 to 16 (≈ 2.21 to 35.4 µM) | 1 to 16 (≈ 2.21 to 35.4 µM)
N#Cc1ccc(CN(Cc2nnc(N)o2)C(=O)CSc2cc(OCCN)ccc2Cl)c(F)c1 [Compound No. 60, 2-[5-(2-Aminoethoxy)-2-chloro-phenyl]sulfanyl-N-[(5-amino-1,3,4-oxadiazol-2-yl)methyl]-N-[(4-cyano-2-fluoro-phenyl)methyl]acetamide] | > 64 | 100 to 1000 | < 1 | 1 to 16 (≈ 2.04 to 32.6 µM) | –
N#Cc1ccc(CN(Cc2nnc(N)o2)C(=O)CSc2cc(CCO)ccc2Cl)c(F)c1 [Compound No. 63, N-[(5-Amino-1,3,4-oxadiazol-2-yl)methyl]-2-[2-chloro-5-(2-hydroxyethyl)phenyl]sulfanyl-N-[(4-cyano-2-fluoro-phenyl)methyl]acetamide] | > 64 | – | < 1 | 1 to 16 (≈ 2.1 to 33.6 µM) | 16 to 64 (≈ 33.6 to 134 µM)
CCc1c(F)cc(F)cc1OCC(=O)N(Cc1nnc(N)o1)Cc1ccc(C#N)cc1F [Compound No. 64, N-[(5-Amino-1,3,4-oxadiazol-2-yl)methyl]-N-[(4-cyano-2-fluoro-phenyl)methyl]-2-(2-ethyl-3,5-difluoro-phenoxy)acetamide] | 16 to 64 (≈ 35.9 to 144 µM) | – | < 1 | < 1 | 1 to 16 (≈ 2.25 to 35.9 µM)
Cc1noc(CN(Cc2ccc(C#N)cc2)C(=O)CSc2ccccc2Cl)n1 [Compound No. 68, 2-(2-Chlorophenyl)sulfanyl-N-[(4-cyanophenyl)methyl]-N-[(3-methyl-1,2,4-oxadiazol-5-yl)methyl]acetamide] | > 64 | 20 to 100 | 1 to 16 (≈ 2.42 to 38.8 µM) | 16 to 64 (≈ 38.8 to 155 µM) | –
CCc1ccccc1SCC(=O)N(Cc1ccc(C#N)cc1)Cc1nnc(N)[nH]1 [Compound No. 70, N-[(5-Amino-4H-1,2,4-triazol-3-yl)methyl]-N-[(4-cyanophenyl)methyl]-2-(2-ethylphenyl)sulfanyl-acetamide] | > 64 | 20 to 100 | < 1 | 1 to 16 (≈ 2.46 to 39.4 µM) | –
N#Cc1ccc(CN(Cc2nnc(N)o2)C(=O)CSc2ccccc2Cl)c(F)c1 [compound 13] | 16 to 64 (≈ 37 to 148 µM) | – | < 1 | 1 to 16 (≈ 2.32 to 37 µM) | 1 to 16 (≈ 2.32 to 37 µM)
N#Cc1ccc(CN(Cc2nnc(N)o2)C(=O)CSc2ccccc2Cl)cn1 [compound 14] | > 64 | – | < 1 | 1 to 16 (≈ 2.41 to 38.6 µM) | 16 to 64 (≈ 38.6 to 154 µM)
Cc1ccccc1SCC(=O)N(Cc1ccc(C#N)nc1)Cc1nnc(N)o1 [compound 15] | > 64 | 100 to 1000 | 1 to 16 (≈ 2.54 to 40.6 µM) | 1 to 16 (≈ 2.54 to 40.6 µM) | –
N#Cc1ccc(CN(Cc2nnc(N)o2)C(=O)COc2cccc(Cl)c2)c(F)c1 [compound 20] | > 64 | – | 1 to 16 (≈ 2.4 to 38.5 µM) | 16 to 64 (≈ 38.5 to 154 µM) | > 64
N#Cc1cc(F)c(CN(Cc2nnc(N)o2)C(=O)CSc2cccc(F)c2Cl)c(F)c1 [compound 25] | 1 to 16 (≈ 2.14 to 34.2 µM) | – | < 1 | 1 to 16 (≈ 2.14 to 34.2 µM) | 1 to 16 (≈ 2.14 to 34.2 µM)
N#Cc1cc(F)c(CN(Cc2nnc(N)o2)C(=O)CSc2cc(F)cc(F)c2Cl)c(F)c1 [compound 26] | > 64 | – | < 1 | < 1 | 1 to 16 (≈ 2.06 to 32.9 µM)
N#Cc1ccc(CN(Cc2nnc(N)o2)C(=O)CSc2cc(F)ccc2Cl)c(F)c1 [compound 30] | 16 to 64 (≈ 35.6 to 142 µM) | < 20 | < 1 | 1 to 16 (≈ 2.22 to 35.6 µM) | –
N#Cc1ccc(CN(Cc2nnc(N)o2)C(=O)COc2ccccc2C(F)(F)F)cc1 [compound 33] | > 64 | 20 to 100 | < 1 | 16 to 64 (≈ 37.1 to 148 µM) | –
N#Cc1ccc(CN(Cc2nnc(N)o2)C(=O)COc2ccccc2Br)cc1 [compound 35] | > 64 | 20 to 100 | < 1 | 1 to 16 (≈ 2.26 to 36.2 µM) | –
CCc1ccccc1OCC(=O)N(Cc1nnc(N)o1)Cc1ccc(C#N)cc1F [compound 37] | > 64 | – | < 1 | 1 to 16 (≈ 2.44 to 39.1 µM) | 16 to 64 (≈ 39.1 to 156 µM)
CCc1ccc(F)cc1OCC(=O)N(Cc1nnc(N)o1)Cc1ccc(C#N)cc1F [compound 38] | 16 to 64 (≈ 37.4 to 150 µM) | – | < 1 | 1 to 16 (≈ 2.34 to 37.4 µM) | 16 to 64 (≈ 37.4 to 150 µM)
N#Cc1ccc(CN(Cc2nnc(N)o2)C(=O)COc2ccccc2OC(F)(F)F)c(F)c1 [compound 39] | > 64 | – | 1 to 16 (≈ 2.15 to 34.4 µM) | 16 to 64 (≈ 34.4 to 138 µM) | > 64
CCc1c(F)cccc1OCC(=O)N(Cc1nnc(N)o1)Cc1ccc(C#N)cc1F [compound 41] | > 64 | – | < 1 | < 1 | 1 to 16 (≈ 2.34 to 37.4 µM)
CCc1ccccc1SCC(=O)N(Cc1nnc(N)o1)Cc1ccc(C#N)cc1F [compound 42] | 16 to 64 (≈ 37.6 to 150 µM) | – | < 1 | 1 to 16 (≈ 2.35 to 37.6 µM) | 1 to 16 (≈ 2.35 to 37.6 µM)
N#Cc1ccc(CN(Cc2nnc(N)o2)C(=O)CSc2cc(CO)ccc2Cl)cc1 [compound 45] | > 64 | 20 to 100 | < 1 | 1 to 16 (≈ 2.25 to 36 µM) | –
N#Cc1ccc(CN(Cc2nnc(N)o2)C(=O)CSc2cccc(F)c2Cl)cc1 [compound 52] | > 64 | – | < 1 | 1 to 16 (≈ 2.32 to 37 µM) | 1 to 16 (≈ 2.32 to 37 µM)
N#Cc1ccc(CN(Cc2nnc(N)o2)C(=O)CSc2cc(F)cc(F)c2Cl)c(F)c1 [compound 55] | 1 to 16 (≈ 2.14 to 34.2 µM) | – | < 1 | < 1 | 1 to 16 (≈ 2.14 to 34.2 µM)
N#Cc1ccc(CN(Cc2nnc(N)o2)C(=O)CSc2ccccc2OC(F)(F)F)c(F)c1 [compound 56] | > 64 | – | < 1 | 16 to 64 (≈ 33.2 to 133 µM) | > 64
